Source: PubChem BioAssay AID179 (DTP/NCI, 2004)
Values joined by “and” are separate entries in the source; they are usually repeats but may differ in a detail not shown here. Equal entries are not always repeated. Active and inactive are the calls of the source.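 Rule for the calls: active = compounds giving half or more protection of infected cells from virus-caused growth loss, again on retest; inactive = the rest.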 Where a SMILES comes first, the peptide text is derived from it. Bridges are numbered along the chain shown (N, C = ends). The star is where a group is joined. Cbz = O=C(OCc1ccccc1)*

Test system: CEM cells HIV-1 protection, formazan growth assay
Experiment: NCI AIDS Antiviral Assay
Settings: for IC50: measured here: growth of uninfected CEM cells
In short: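 Protection of CEM cells against HIV-1 measured as cell growth via soluble formazan read-out, with five concentrations tested on both infected and uninfected cells; failure to protect may reflect toxicity.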

| SMILES | EC50 | IC50 [µM] | outcome |
| --- | --- | --- | --- |
| O=C(O)c1c(Br)c(Br)c(Br)c(Br)c1C1c2ccc(O)cc2Oc2cc(O)ccc21 | 2.95 µM | 174 | – |
| NC(=S)N/N=C1\CCCC1C(O)(C(F)(F)Cl)C(F)(F)Cl (stereo unspecified) | > 200 µM | 38.9 | – |
| CCN(CC)C1=CC(=O)c2nc(C)c(C)nc2C1=O | – | – | inactive |
| O=C1[C@H]2ON(c3ccccc3)C(c3ccc([N+](=O)[O-])cc3)[C@H]2C(=O)N1c1ccc(Cc2ccc(N3C(=O)[C@@H]4ON(c5ccccc5)C(c5ccc([N+](=O)[O-])cc5)[C@@H]4C3=O)cc2)cc1 (stereo partly specified) | > 8.51 µM | > 8.51 | – |
| CC1(C)CC(=O)C(Cc2ccccc2)(Cc2ccccc2)C(=O)C1 | – | – | inactive |
| CC(=O)OC1CCCn2c1nc1c2C(=O)C(C)=C(N2CC2)C1=O (stereo unspecified) | – | – | inactive |
| O=[N+]([O-])c1ccc(O)c(/C=N/NC(=S)N2CCCCC2)c1 | > 200 µM | 2.95 | – |
| C=C(C)[C@H]1CC(=O)[C@@]2(C)C[C@H]3O[C@]3(C)CC/C=C(\C)CC[C@H]12 | > 200 µM | 55 | – |
| C/C(O)=C(\N=O)C(=O)Nc1ccc(Cl)cc1Cl | > 339 µM | 145 | – |
| O=C(N/N=C/c1cc(-c2ccccc2Cl)c(-c2ccccc2Cl)o1)c1ccncc1 | > 12 µM | > 12 | – |
| CCC[CH2][Sn]1([CH2]CCC)[O]CC([CH2][Sn]([c]2ccccc2)([c]2ccccc2)[c]2ccccc2)[O]1 (stereo unspecified) | > 3.98 µM | 0.0234 | – |
| CC(C)=CCC[C@@H](C)/C=C/C=C(\C)C(=O)CC[C@@H]1CC[N@+]2(C)CCCC[C@H]12 | > 200 µM | 46.8 | – |
| NC(Cc1ccc2nc3c4ccccc4c(=O)cc-3oc2c1)C(=O)O (stereo unspecified) | > 200 µM | 34.7 | – |
| C=C1C(OO)O[C@@H]2O[C@@]3(C)CC[C@H]4[C@H](C)CC[C@@H]1[C@@]24O3 (stereo partly specified) | > 200 µM | 27.5 | – |
| C/C(=N/NC(=S)Nc1ccc(C)cc1)c1ccccn1 | > 0.2 µM | 0.0794 | – |
| CN(C)CCNC(=O)c1cnn(C)c1[N+](=O)[O-] | > 200 µM | > 200 | – |
| O=C(O)c1ccc(CS(=O)(=O)c2ccccc2C(=O)O)cc1 | > 776 µM | > 776 | – |
| COc1ccc2nc3cc(Cl)ccc3c(NCCCN(C)CCCNc3ccc4ncn5c6ccccc6c(=O)c3c45)c2c1 | > 0.251 µM | 0.166 | – |
| CC(=O)OCC1OC(n2c(N)c(C#N)c(C)c(C#N)c2=S)C(OC(C)=O)C(OC(C)=O)C1OC(C)=O (stereo unspecified) | 145 µM and 162 µM | > 200 | – |
| CN1CCCCCC(=N\O)/C(=N/O)CCCCC1 | > 977 µM | > 977 | – |
| CCOc1ccc(NC(=S)/N=C/c2c(O)cc(C)oc2=O)cc1 | – | – | inactive |
| COC(=O)/C(C#N)=C/NC(=S)Nc1ccccc1 | > 200 µM | > 200 | – |

| SMILES | EC50 | IC50 [µM] | outcome |
| --- | --- | --- | --- |
| COc1ccc(/C=N/NC(=O)c2cnc3[nH]c(=O)n(C)c(=O)c3c2)cc1 | > 200 µM | > 200 | – |
| O=c1n(-c2ccccc2)c(=O)n2n1C1C=CC2CCCCCC1 | > 200 µM | > 200 | – |
| CC(=O)Nc1cc2c(O)c(N=Nc3ccc(C(=O)Nc4ccc(N=Nc5ccc(S(=O)(=O)O)cc5)cc4)cc3)c(S(=O)(=O)O)cc2cc1S(=O)(=O)O | – | – | active |
| N=Nc1c2ccccc2c2nc3c(N)[nH]nc(N)c3nc12 | > 45.7 µM | 28.8 | – |
| CCCCC1(N=[N+]=[N-])C(=O)c2cccc3c2N(CCC3)C1=O (stereo unspecified) | > 200 µM | > 200 | – |
| O=C1CCCCC1CN1CCOCC1 (stereo unspecified) | – | – | inactive |
| CSC1=NN(c2ccccc2)C(=O)C1=C(SC)SC | > 200 µM | 25.1 | – |
| CC1=NC(C)(C)N(O)C1(C)C | > 200 µM | > 200 | – |
| COC(=O)C1CCCCNC(=O)CCC(NC(=O)OCc2ccccc2)C(=O)N1 (stereo not drawn) (Cbz-Glu-Lys-OMe; lactam 1-2; configuration not given here) | > 200 µM | > 200 | – |
| O=C(SC1=NCCS1)SC1=NCCS1 | – | – | inactive |
| CCOC(=O)c1cc2c([nH]1)C(=O)CSC1=C2CCN1Cc1ccccc1 | > 50.1 µM | 21.9 | – |
| COC(=O)/C=C\C(C#N)(C#N)N=Cc1cccc(OC)c1 | > 20 µM | 1.26 | – |
| COC1OCC(N)C(O)C1O (stereo unspecified) | – | – | inactive |
| O=S(=O)(C/C(=N\O)c1ccccc1)c1ccccc1 | > 324 µM | 182 | – |
| COc1cc2c(cc1OC)C(=O)c1nccc3ccc(OC)c(c13)O2 | > 53.7 µM | 43.7 | – |
| Oc1ccccc1C=Nc1ccccc1S.[Cu+2] | > 151 µM | 2.57 | – |
| CCCCCCCCCCCO/N=C\c1c2c(O)c3c(O)c(C)c4c(c3c1O)C(=O)C(C)(O/C=C\C(OC)C(C)C(OC(C)=O)C(C)C(O)C(C)C(O)C(C)/C=C\C=C(\C)C(=O)N2)O4 (stereo unspecified) | > 200 µM | 3.02 | – |
| Cc1cc(=O)c2cc3nc(-c4cccnc4)oc3c(Br)c2o1 | 182 µM | > 200 | – |
| N#CN(CS(=O)(=O)O)C(=N)N | > 200 µM | > 200 | – |
| COc1cc(N=NN(C)C)c(C(C)c2c3cc(OC)c(OC)cc3cc[n+]2C)cc1OC (stereo unspecified) | > 200 µM | 20.9 | – |
| C=C1CN(C(=O)c2cc3cc(OC)c(OC)c(OC)c3[nH]2)c2cc([N+](=O)[O-])ccc21 | 26.9 µM | > 200 | – |
| COC(=O)c1c(COC(=O)NC(C)C)c2n(c1C)CS(=O)(=O)C2 | > 200 µM | > 200 | – |

| SMILES | EC50 | IC50 [µM] | outcome |
| --- | --- | --- | --- |
| O=C1CN=C(c2ccc[nH]2)c2cc(Cl)ccc2N1 | 2.45 µM | 3.98 | – |
| CNC(=O)N1CCN(C(=O)NC)CCN(C(=O)NC)CC1 | > 200 µM | > 200 | – |
| O=S(=O)(/C=C/C(=C/c1ccccc1)S(=O)(=O)c1ccccc1)c1ccccc1 | – | – | inactive |
| O/N=C1\CCCC\C1=C/c1ccccc1 | – | – | inactive |
| OCc1cccnc1 | > 200 µM | > 200 | – |
| O=C(N/N=C(/CCN1CCCC1)CC(c1ccccc1)c1c(O)c2ccccc2oc1=O)c1ccncc1 (stereo unspecified) | > 34.7 µM | – | – |
| CC(=O)OC1C=C2c3cc4c(c(O)c3C(=O)NC2[C@H](OC(C)=O)[C@@H]1OC(C)=O)OCO4 (stereo partly specified) | – | – | inactive |
| COc1ccc(/C=C/C(=O)c2ccccc2)cc1OC | > 97.7 µM | 18.2 | – |
| CCOC(=O)C(=O)/C(=C/N1CCNC1=S)C(=O)OCC | – | – | inactive |
| COc1cc(OC)c2nc(C)c3c(c2c1)NCC3 | > 200 µM | 3.98 | – |
| NC(N)NCCCc1cn2c(n1)C1CCCN1C(=O)C2Cc1ccccc1 (stereo unspecified) | > 676 µM | > 676 | – |
| COc1ccc(C)[n+]([O-])n1 | > 200 µM | > 200 | – |
| Cc1c2ccc(Cl)cc2nc2ccc(OCCNC(=O)[C@H](CCCN=C(N)N)NC(=O)OC(C)(C)C)cc12 | > 200 µM | 89.1 | – |
| COc1ccc(C(=C2C(=O)N(c3ccccc3)C(=O)C2=C(C)C)c2ccc(OC)cc2)cc1 | > 200 µM | 3.39 | – |
| O=C1/C(=C/c2ccccc2)NC(=S)N1CN1CCCCC1 | > 200 µM | 33.9 | – |
| COc1ccc(/C=C/c2cnc3ccccc3n2)cc1OC | > 200 µM | 155 | – |
| N#CCCN(CCC#N)c1ccc(/C=C2\N=C(c3ccccc3)N(c3ccc(C(=O)O)cc3)C2=O)cc1 | > 200 µM | 33.9 | – |
| OCC1OC(n2cnc3c(SSc4ncnc5c4ncn5C4OC(CO)C(O)C4O)ncnc32)C(O)C1O (stereo unspecified) | > 200 µM | > 200 | – |
| CN1CCCC1CCNc1nc(Nc2ccc(Cl)c(Cl)c2)nc2ccc(Cl)cc12 (stereo unspecified) | > 19.1 µM | 3.24 | – |
| CCOc1ccc(NC(=O)C(=O)CC(=O)c2sc(NNC(C)=O)nc2C)cc1 | > 44.7 µM | > 44.7 | – |
| CC(C)(C)OC(=O)N[C@H]1CCN(C2CCCCC2)C1=O | > 200 µM | > 200 | – |
| O=C(CC12C3C4C1C1C2C3C41CC(=O)NO)NO (stereo unspecified) | > 251 µM | 49 | – |

| SMILES | EC50 | IC50 [µM] | outcome |
| --- | --- | --- | --- |
| CCCC12C(C(=O)OC)C(=O)C(C(=O)OC)C1(C)C(C(=O)OC)C(=O)C2C(=O)OC (stereo unspecified) | > 138 µM | 97.7 | – |
| Cc1ccc(/C=C2\Cc3cccc(C)c3C2=O)c(C(=O)O)c1 | > 200 µM | 105 | – |
| CCCCCCCCOCC(O)CO (stereo unspecified) | – | – | inactive |
| O=C1c2c(O)cccc2C(C2OC(CO)C(O)C(O)C2O)c2cc(CO)cc(O)c21 (stereo unspecified) | > 603 µM | 389 | – |
| COC(=O)C(Cc1nc2ccc(Cl)cc2[nH]c1=O)C(=O)C(=O)Nc1ccccc1[N+](=O)[O-] (stereo unspecified) | > 148 µM | > 148 | – |
| C=CCNC(=O)NNC(O)(C(=O)OCC)C(F)(F)F (stereo unspecified) | > 200 µM | 174 | – |
| CC(=O)ON1CCC(n2cc(C)c(=O)[nH]c2=O)C1 (stereo unspecified) | > 200 µM | > 200 | – |
| COC1=C(Br)[C@H](O)[C@@]2(C=C1Br)CC(C(=O)NCCCCCN=C(N)N)=NO2 | > 10 µM | > 10 | – |
| NCCC(=O)NCS(=O)(=O)O | > 200 µM | > 200 | – |
| Cc1cc(C)c(C#N)c(SCC(=O)c2sc3c(C#N)c(C)cc(C)[n+]3c2[O-])n1 | > 6.61 µM | > 6.61 | – |
| CC1=NN(C(=O)Cc2ccccc2)C(=O)/C1=C\C=C\c1ccccc1 | > 57.5 µM | > 57.5 | – |
| COc1ccc(N=Nc2ccc3oc(=O)c(C(=O)Nc4ccccc4)cc3c2)cc1 | > 200 µM | 33.1 | – |
| CCOC(=O)NC(=O)c1c[nH]c(=O)[nH]c1=O | > 1100 µM | > 1100 | – |
| CC(=O)[O-].O=C([N-]/N=C\c1ccoc1)c1ccncc1.[Ni+2].[OH3+].[OH3+].c1ccncc1 | > 200 µM | > 200 | – |
| CC(C(O)c1ccccc1)C(O)(C(F)(F)F)C(F)(F)F (stereo unspecified) | > 200 µM | 95.5 | – |
| COC(=O)c1ccc(C)cc1C1CN=NC12Cc1cc(C)c(C)cc1C2=O (stereo unspecified) | > 200 µM | 22.4 | – |
| CN1C(=O)c2ccccc2Cc2c(N3CCCC3)ncnc21 | > 17.8 µM | > 17.8 | – |
| O=C1OCC(O)=C1C(c1ccc(Cl)cc1)c1cc2c(cc1O)OCO2 (stereo unspecified) | > 200 µM | > 200 | – |
| NC(CCC(=O)O)(CCC(=O)O)CCC(=O)O | – | – | inactive |
| O=C(CCCC[n+]1ccccc1)Sc1ccccc1C(=O)Nc1ccc(S(=O)(=O)Nc2ccccn2)cc1 | 26.9 µM | 115 | – |
| CC1(C)OC2C3CCC(C)(C3)C2(c2ccccc2)O1 (stereo unspecified) | > 87.1 µM | > 87.1 | – |
| CCOC(=O)/C(F)=C/c1ccc(F)cc1 | > 123 µM | > 123 | – |
